Test results taken from patent publication US7772235B2, “mGluR5 modulators” (Astrazeneca AB, priority 2006, dated 2010).
Where “and” joins values, the source holds several entries; their conditions need not be identical. Equal entries are not always repeated.

test system: not listed separately; test: Determination of brain to plasma ratio (B/P ratio) in rat; format: in vivo, female Sprague Dawley rats; conditions: female, Sprague-Dawley, read-out: B/P Ratio (drug in brain over drug in plasma)
Method: Brain to plasma ratios are estimated in female Sprague Dawley rats. The compound is dissolved in water or another appropriate vehicle. For determination of brain to plasma ratio the compound is administrated as a subcutaneous, or an intravenous bolus injection, or an intravenous infusion, or an oral administration. At a predetermined time point after the administration a blood sample is taken with cardiac puncture. The rat is terminated by cutting the heart open, and the brain is immediately retained. The blood samples are collected in heparinized tubes and centrifuged within 30 minutes, in order to separate the plasma from the blood cells. The plasma is transferred to 96-well plates and stored at −20° C. until analysis. The brains are divided in half, and each half is placed in a pre-tarred tube and stored at −20° C. until analysis. Prior to the analysis, the brain samples are thawed and 3 mL/g brain tissue of distilled water is added to the tubes. The brain samples are sonicated in an ice bath until the samples are homogenized. Both brain and plasma samples are precipitated with acetonitrile. After centrifugation, the supernatant is diluted with 0.2% formic acid. […] After reconstitution of the residuals the samples are ready for injection onto the HPLC column.

**Q.** With C[C@@H](Oc1nnc(-c2ccncc2)n1C)c1cc(-c2cccc(Cl)c2)on1 [reference compound] as the compound, how does the Kp read?
**A.** 0.8

**Q.** With C[C@@H](Oc1nnc(-c2cc[nH]c(=O)c2)n1C)c1cc(-c2cccc(Cl)c2)on1 [Example 37.3, 4-(5-{(1R)-1-[5-(3-Chlorophenyl)isoxazol-3-yl]ethoxy}-4-methyl-4H-1,2,4-triazol-3-yl)pyridin-2(1H)-one] as the compound, how does the Kp read?
**A.** 0.02

biological target: T1, human mGluR5d (Homo sapiens, UniProt P41594); test: FLIPR assay of mGluR5 antagonism (intracellular calcium mobilization); format: cell-based; conditions: cells expressing human mGluR5d
T1 construct: expressed in transfected cells
T1 sequence (P41594 21-942 isoform P41594-3 limits assumed): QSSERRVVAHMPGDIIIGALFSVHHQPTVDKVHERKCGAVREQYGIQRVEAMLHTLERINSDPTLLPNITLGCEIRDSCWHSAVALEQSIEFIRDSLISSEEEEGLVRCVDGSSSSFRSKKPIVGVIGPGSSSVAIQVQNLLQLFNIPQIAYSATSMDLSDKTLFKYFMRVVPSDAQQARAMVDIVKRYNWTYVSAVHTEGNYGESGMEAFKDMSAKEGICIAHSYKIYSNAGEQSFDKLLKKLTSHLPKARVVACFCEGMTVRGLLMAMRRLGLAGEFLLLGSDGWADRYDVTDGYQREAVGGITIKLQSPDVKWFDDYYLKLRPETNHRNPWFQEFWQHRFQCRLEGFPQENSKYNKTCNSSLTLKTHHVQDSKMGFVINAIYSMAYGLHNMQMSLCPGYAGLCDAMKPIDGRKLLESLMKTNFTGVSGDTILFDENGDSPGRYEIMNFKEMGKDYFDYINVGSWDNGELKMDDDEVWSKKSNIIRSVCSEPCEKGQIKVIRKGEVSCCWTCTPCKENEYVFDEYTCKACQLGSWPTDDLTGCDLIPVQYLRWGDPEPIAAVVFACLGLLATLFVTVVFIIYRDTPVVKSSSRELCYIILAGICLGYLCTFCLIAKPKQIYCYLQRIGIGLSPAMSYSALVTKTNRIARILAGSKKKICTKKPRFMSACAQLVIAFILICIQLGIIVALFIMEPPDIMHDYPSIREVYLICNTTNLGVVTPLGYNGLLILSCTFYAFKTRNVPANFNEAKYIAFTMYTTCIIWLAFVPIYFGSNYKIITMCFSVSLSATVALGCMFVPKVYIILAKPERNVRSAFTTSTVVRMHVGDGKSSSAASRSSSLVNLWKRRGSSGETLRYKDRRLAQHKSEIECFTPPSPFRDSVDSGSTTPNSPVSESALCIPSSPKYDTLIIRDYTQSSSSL
Source text: The properties of the compounds of the invention can be analyzed using standard assays for pharmacological activity. Examples of glutamate receptor assays are well known in the art as described in for example Aramori et al., Neuron 8:757 (1992), Tanabe et al., Neuron 8:169 (1992), Miller et al., J. Neuroscience 15: 6103 (1995), Balazs, et al., J. Neurochemistry 69:151 (1997). The methodology described in these publications is incorporated herein by reference. Conveniently, the compounds of the invention can be studied by means of an assay (FLIPR) that measures the mobilization of intracellular calcium, [Ca^2+]i in cells expressing mGluR5 or another assay (IP3) that measures inositol phosphate turnover.
Cells expressing human mGluR5d as described in WO97/05252 are seeded at a density of 100,000 cells per well on collagen coated clear bottom 96-well plates with black sides and experiments are done 24 h following seeding. All assays are done in a buffer containing 127 mM NaCl, 5 mM KCl, 2 mM MgCl2, 0.7 mM NaH2PO4, 2 mM CaCl2, 0.422 mg/mL NaHCO3, 2.4 mg/mL HEPES, 1.8 mg/mL glucose and 1 mg/mL BSA Fraction IV (pH 7.4). Cell cultures in the 96-well plates are loaded for 60 minutes in the above mentioned buffer containing 4 μM of the acetoxymethyl ester form of the fluorescent calcium indicator fluo-3 (Molecular Probes, Eugene, Oreg.) in 0.01% pluronic acid (a proprietary, non-ionic surfactant polyol—CAS Number 9003-11-6). Following the loading period the fluo-3 buffer is removed and replaced with fresh assay buffer. FLIPR experiments are done using a laser setting of 0.800 W and a 0.4 second CCD camera shutter speed with excitation and emission wavelengths of 488 nm and 562 nm, respectively. Each experiment is initiated with 160 μl of buffer present in each well of the cell plate. A 40 μl addition from the antagonist plate was followed by a 50 μL addition from the agonist plate. A 30 minute interval separates the antagonist and agonist additions. The fluorescence signal is sampled 50 times at 1 second intervals followed by 3 samples at 5 second intervals immediately after each of the two additions. Responses are measured as the difference between the peak height of the response to agonist, less the background fluorescence within the sample period. IC50 determinations are made using a linear least squares fitting program.

**Q.** Which IC50 does the source give for C[C@@H](Oc1nnc(-c2ccn(C)c(=O)c2)n1C)c1noc(-c2cccc(Cl)c2)n1 [Example 36.2, 4-(5-{(1R)-1-[5-(3-Chlorophenyl)-1,2,4-oxadiazol-3-yl]ethoxy}-4-methyl-4H-1,2,4-triazol-3-yl)-1-methylpyridin-2(1H)-one] here?
**A.** 20 nM

**Q.** For C[C@@H](Oc1nnc(-c2cn[nH]c(=O)c2)n1C)c1noc(-c2cccc(Cl)c2)n1 [Example 38.4, 5-(5-{(1R)-1-[5-(3-Chlorophenyl)-1,2,4-oxadiazol-3-yl]ethoxy}-4-methyl-4H-1,2,4-triazol-3-yl)pyridazin-3(2H)-one], which IC50 is on record?
**A.** 15 nM

**Q.** Which IC50 does the source give for C[C@@H](Oc1nnc(-c2cn[nH]c(=O)c2)n1C)c1cc(-c2cccc(Cl)c2)on1 [Example 38.5, 5-(5-{(1R)-1-[5-(3-Chlorophenyl)isoxazol-3-yl]ethoxy}-4-methyl-4H-1,2,4-triazol-3-yl)pyridazin-3(2H)-one] here?
**A.** 8 nM

**Q.** For Cc1cccc(-n2nnc([C@@H](C)Oc3nnc(-c4cn[nH]c(=O)c4)n3C)n2)c1 [Example 38.6, 5-(4-Methyl-5-{(1R)-1-[2-(3-methylphenyl)-2H-tetrazol-5-yl]ethoxy}-4H-1,2,4-triazol-3-yl)pyridazin-3(2H)-one], which IC50 is on record?
**A.** 7 nM

**Q.** Which IC50 does the source give for C[C@@H](Oc1nnc(-c2cn[nH]c(=O)c2)n1C)c1nnn(-c2cccc(Cl)c2)n1 [Example 38.3, 5-(5-{(1R)-1-[2-(3-Chlorophenyl)-2H-tetrazol-5-yl]ethoxy}-4-methyl-4H-1,2,4-triazol-3-yl)pyridazin-3(2H)-one] here?
**A.** 6 nM

**Q.** Which IC50 does the source give for Cc1cccc(-c2cc([C@@H](C)Oc3nnc(-c4cn[nH]c(=O)c4)n3C)no2)c1 [Example 38.7, 5-(4-Methyl-5-{(1R)-1-[5-(3-methylphenyl)isoxazol-3-yl]ethoxy}-4H-1,2,4-triazol-3-yl)pyridazin-3(2H)-one] here?
**A.** 12 nM

**Q.** Which IC50 does the source give for C[C@@H](Oc1nnc(-c2cc[nH]c(=O)c2)n1C)c1noc(-c2cccc(Cl)c2)n1 [Example 38.1, 4-(5-{(R)-1-[5-(3-Chloro-phenyl)-[1,2,4]oxadiazol-3-yl]-ethoxy}-4-methyl-4H-[1,2,4]triazol-3-yl)-1H-pyridin-2-one] here?
**A.** 13 nM

**Q.** For C[C@@H](Oc1nnc(-c2ccn(C)c(=O)c2)n1C)c1cc(-c2cccc(Cl)c2)on1 [Example 36.1, 4-(5-{(1R)-1-[5-(3-Chlorophenyl)isoxazol-3-yl]ethoxy}-4-methyl-4H-1,2,4-triazol-3-yl)-1-methylpyridin-2(1H)-one], which IC50 is on record?
**A.** 19 nM

**Q.** With Cn1c(OCc2cc(-c3cccc(Cl)c3)on2)nnc1-c1cc[nH]c(=O)c1 [Example 37.2, 4-(5-{[5-(3-chlorophenyl)isoxazol-3-yl]methoxy}-4-methyl-4H-1,2,4-triazol-3-yl)pyridin-2(1H)-one] as the compound, how does the IC50 read?
**A.** > 3000 nM and 1580 nM

**Q.** Which IC50 does the source give for C[C@@H](Oc1nnc(-c2cc[nH]c(=O)c2)n1C)c1cc(-c2cccc(Cl)c2)on1 [Example 37.3, 4-(5-{(1R)-1-[5-(3-Chlorophenyl)isoxazol-3-yl]ethoxy}-4-methyl-4H-1,2,4-triazol-3-yl)pyridin-2(1H)-one] here?
**A.** 10 nM

**Q.** With C[C@@H](Oc1nnc(-c2cc[nH]c(=O)c2)n1C)c1nnn(-c2cccc(Cl)c2)n1 [Example 38.2, 4-(5-{(1R)-1-[2-(3-Chlorophenyl)-2H-tetrazol-5-yl]ethoxy}-4-methyl-4H-1,2,4-triazol-3-yl)pyridin-2(1H)-one] as the compound, how does the IC50 read?
**A.** 9 nM
